Reference: PMC6167049, “Structural and catalytic properties of the peroxygenase P450 enzyme CYP152K6 from Bacillus methanolicus” (Journal of Inorganic Biochemistry, 2018)

Experiments:
[1] = target: T1, CYP152K6 (Bacillus methanolicus, UniProt I3DZK9); experiment: X-ray crystal structure, […] Å; assay type: binding; settings: co-purified from E. coli, bound above heme at Arg244; pH 8.0 protein buffer
T1 construct: gene cypC; codon-optimised synthetic gene in pET24b, E. coli BL21 (DE3); N-terminal 6xHis-tag cut with TEV protease; monomer; 417 residues in crystal model; co-purifies with tetradecanoic acid

[2] = target: T1, CYP152K6; experiment: X-band EPR and UV-visible spectroscopy; assay type: binding; settings: ferric enzyme; EPR at 10 K, 1 and 2 mM ligand; UV-visible with 400 μM ligand, pH 8.0, 25 °C; H2O2-driven turnover also tested

T1 sequence (I3DZK9 whole entry): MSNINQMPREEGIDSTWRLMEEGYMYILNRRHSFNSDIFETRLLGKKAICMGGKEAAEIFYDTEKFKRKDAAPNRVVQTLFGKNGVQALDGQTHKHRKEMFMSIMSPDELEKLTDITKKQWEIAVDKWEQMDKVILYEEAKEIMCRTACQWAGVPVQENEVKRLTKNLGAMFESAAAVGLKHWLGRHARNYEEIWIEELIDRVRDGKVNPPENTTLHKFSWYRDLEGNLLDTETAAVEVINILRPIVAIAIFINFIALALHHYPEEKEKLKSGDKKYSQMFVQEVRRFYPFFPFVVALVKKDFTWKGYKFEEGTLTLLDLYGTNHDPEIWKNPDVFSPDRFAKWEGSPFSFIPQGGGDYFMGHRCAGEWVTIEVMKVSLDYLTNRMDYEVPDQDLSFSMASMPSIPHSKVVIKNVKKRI

SMILES | X-ray crystal structure, 1.3 Å [1] | X-band EPR and UV-visible spectroscopy [2]
CCCCCCCCCCCCCC(=O)O [tetradecanoic acid] | The final model of CYP152K6 in complex with tetradecanoic acid has been deposited | –
CCCCCCCCCCCC(=O)O [dodecanoic acid] | – | the addition of dodecanoic acid alters the equilibria between the three major components
